According to patent US11944609B1, “Antifungal ionic liquid and Amphotericin B combination” (KING ABDULAZIZ UNIVERISTY, priority 2023, dated 2024):

What was measured:
[1] = tested on: horse red blood cells (H-RBC); test: Haemolytic activity (cytotoxicity on red blood cells); format: cell-based
Method: The cytotoxicity of IPC8 on horse red blood cells (H-RBC) was checked by conducting a cytotoxicity assay. Briefly, the RBC was separated from the horse blood and was thoroughly washed with NaCl (150 mM) solution. Thereafter, RBC suspension (2%) was prepared in sterile PBS, followed by the addition (180 μL) to a microcentrifuge tube containing […] ([…]), the microcentrifuge tubes were kept aside for 45 min at 37° C. followed by centrifugation at 1300×g for 5 min. The supernatant (100 μL) was collected in a separate tube and mixed with 900 μL of sterile PBS. Aliquots (200 μL) were taken from each dilution and transferred to a 96-well flat bottom microtiter plate, and optical density was measured at 540 nm (SpectraMax iD3 multi-mode microplate reader, Molecular Devices). The negative control contained RBC suspension in PBS, and the positive control had RBC treated with 0.1% Triton X-100. To calculate the percentage of hemolysis below formula was used.

[2] = tested on: C. auris; test: Antifungal susceptibility by broth microdilution (MIC) and SDA plating (MFC); format: cell-based, Candida auris; details: for Average MIC value / Average MFC value: compound alone, C. auris (2921); for Average MIC value: concentration giving 100% inhibition; for Average MFC value: no visible colonies on SDA after 24 h
Method: In this work, the antifungal activity of the ionic liquids (IPC4-IPC12) against C. auris was investigated in terms of minimum inhibitory concentration (MIC) and minimum fungicidal concentration (MFC). A stock solution of 20 mg/mL was prepared in 1% Dimethyl sulfoxide (DMSO; Sigma-Aldrich, USA). Fourteen different concentrations of test ILs were prepared by performing serial dilution in a flat bottom 96-well microtiter plate, followed by the addition of C. auris cells (0.5×103-2.5×10^3 cells/mL; 100 μL) which gave us the final test concentrations of ILs (5000-0.61 μg/mL). Amphotericin B was used as a positive control, 1% DMSO as a negative control, and drug-free control was used in each set of experiments. The optical density was determined at a wavelength of 600 nm using SpectraMax iD3 multi-mode microplate reader, and the concentration resulting in 100% inhibition was picked up as the MIC value. Post-MIC evaluation, MFC was estimated by administrating 10 μL of samples from the wells displaying MIC and beyond on a Sabouraud Dextrose Agar (SDA) plate. The plates were incubated at 35±2° C. for 24 h, and the concentration resulting in no visible colonies was documented as MFC value for respective ionic liquids.

[3] = Viscosity measurement (RHEOSENSE MicroVisc viscometer); format: physicochemical; details: 298K, atmospheric pressure
[4] = tested on: C. auris; test: Checkerboard microdilution assay of ionic liquids with amphotericin B, with varied ratio isobolograms; format: cell-based, Candida auris; details: for MIC of ionic liquids in combination with AmB: 1:1 combination with amphotericin B; for Average MIC values of individual compounds: alone; for FICb: fractional inhibitory concentration of amphotericin B; for FICa: fractional inhibitory concentration of the ionic liquid; for Type of interaction / ΣFIC: ionic liquid + amphotericin B; for Decrease in the MIC when used together: IPC8 + amphotericin B combination versus alone
Method: The type of interaction between ionic liquids and amphotericin B against C. auris was evaluated by the checkerboard microdilution method. The concentrations of ionic liquids used ranged from 5000-0.61 μg/mL, and amphotericin B was 64-0.06 μg/mL. Subsequently, equal volumes (50 μL) of ionic liquids and amphotericin B were dispensed into pre-determined wells, which were further supplemented with C. auris cells (0.5×103-2.5×10^3 cells/mL; 100 μL) followed by incubation at 35±2° C. for 24 h. Also, each experiment included DMSO (1%) was added as negative control along with growth and sterility controls. […] The interaction between the test compounds and amphotericin B was deduced according to the calculated coefficient of the sum of fractional inhibitory concentrations (ΣFIC).
[formula] MICa=MIC of the ionic liquids; MICb=MIC of amphotericin B. The FICI values were interpreted as ΣFIC≤0.5, synergy; ΣFIC>0.5-≤1, additivity; ΣFIC>1-<2, no interaction; ΣFIC≥2, antagonism.

[5] = Density measurement (Density Meter DMA 501); format: physicochemical; details: 298K, atmospheric pressure
Method: The uncertainties in the density measurements, considering the sample handling and purity, are determined to be with an accuracy of 0.0001 g/cm3.

[6] = tested on: C. auris; test: In vitro time-kill assay; format: cell-based, Candida auris; details: for Average log10 CFU/mL: healthy control 7.78
Method: The assay for determining the time-kill kinetics values of IPC8 against C. auris was carried out at various concentrations (½, 1, 2, and 4 times the MIC) against C. auris. The C. auris cell suspension with a starting inoculum of around 1×105 to 5×10^5 CFU/mL was incubated with/without IPC8 at 35° C.±2° C. and 150 rpm. Aliquots (100 μL) were taken out at predetermined time points (0, 2, 4, 6, 8, 12, and 24 h), and for determining CFU counts, the aliquots were serially diluted in sterile water and plate (20 μL) on SDA growth medium. The plates were incubated at 35° C.±2° C. for 24 to 48 h, and the number of colonies was counted using a colony counter. The experiment was performed in duplicate, and the result is articulated in log 10 viable CFU/mL.

[7] = nine ratios of IPC8 and amphotericin B (10:90 to 90:10), isobolograms

Row | Molecule | Average MIC value [2] [µg/mL] | Average MFC value [2] [µg/mL] | Viscosity [3] [mPa] | MIC of ionic liquids in combination with AmB [4] [µg/mL] | Average MIC values of individual compounds [4] [µg/mL] | FICb [4] | FICa [4] | Type of interaction [4] | ΣFIC [4] | Density [5] [g/mL] | also measured
1 | triton X-100 [reference compound] | – | – | – | – | – | – | – | – | – | – | Haemolysis (observation) [1]: clear haemolysis
2 | CCCC[n+]1ccn2ccccc21.[Br-] [IPC4, 1-Butylimidazo[1,2-a] pyridinium bromide] | 78.12 | 312.5 | 4.14 | 39.06 | 78.12 | 1.0 | 0.5 | No INT (ΣFIC>1-<2, no interaction) | 1.5 | 1.0310 | –
3 | CCCCCCCCCCCC[n+]1ccn2ccccc21.[Br-] [IPC12, 1-Dodecylimidazo[1,2-a] pyridinium bromide] | 312.5 | 625 | 28.60 | 156.25 | 312.5 | 0.5 | 0.25 | ADD (ΣFIC>0.5-≤1, additivity) | 0.75 | 1.0049 | –
4 | CCCCCCCC[n+]1ccn2ccccc21.[Br-] [IPC8, 1-Octylimidazo[1,2-a] pyridinium bromide] | 4.88 | 9.76 | 25.21 | 1.22 | 4.88 | 0.125 | 0.25 | SYN (ΣFIC≤0.5, synergy) | 0.38 | 1.0094 | Fold lower MIC and MFC values compared to other tested ionic liquids ([2]; IPC8 versus other ionic liquids): 3 to 8 fold; Haemolysis ([1]; 156.25 μg/mL): 16.14%; Time to candidacidal endpoint ([6]; 2 times MIC): 12 h; Time to 50% reduction in the log10 CFU/mL from the inoculum ([6]; MIC): 12 h; Average log10 CFU/mL ([6]; after 24 hr exposure to MIC): 4.67 log10 CFU/mL; Average log10 CFU/mL ([6]; after 24 hr exposure to ½ MIC): 5.8 log10 CFU/mL; Time to 50% reduction in the number of CFU ([6]; four times MIC): 2 h; Time to candidacidal endpoint ([6]; four times MIC): 24 h; Nature of activity in time-kill curve ([6]; kill of ≥log 3, concentration- and time-dependent): fungicidal; Time to 50% reduction in the number of CFU ([6]; two times MIC): 4 h; Decrease in the MIC when used together [4]: four-fold; Number of ratios (out of nine) with additive interaction [4, 7]: two; Number of ratios (out of nine) with strong synergistic effect [4, 7]: seven
5 | CCCCCC[n+]1ccn2ccccc21.[Br-] [IPC6, 1-Hexylimidazo[1,2-a] pyridinium bromide] | 39.06 | 78.12 | 14.7 | 9.76 | 39.06 | 0.25 | 0.24 | SYN (ΣFIC≤0.5, synergy) | 0.49 | 1.0102 | –
6 | C[C@@H]1[C@H](O)[C@@H](C)/C=C/C=C/C=C/C=C/C=C/C=C/C=C/[C@H](O[C@@H]2O[C@H](C)[C@@H](O)[C@H](N)[C@@H]2O)C[C@@H]2O[C@](O)(C[C@@H](O)C[C@@H](O)[C@H](O)CC[C@@H](O)C[C@@H](O)CC(=O)O[C@H]1C)C[C@H](O)[C@H]2C(=O)O [Amphotericin B] | 2.0 | 4.0 | – | – | 2.0 | – | – | – | – | – | Average MIC value ([2]; listed as amphotericin B): 2 µg/mL; Average MFC value ([2]; listed as amphotericin B): 4 µg/mL; Decrease in the MIC when used together [4]: four-fold
7 | CCCCCCCCCC[n+]1ccn2ccccc21.[Br-] [IPC10, 1-Decylimidazo[1,2-a] pyridinium bromide] | 78.12 | 312.5 | 27.20 | 19.53 | 78.12 | 0.5 | 0.25 | ADD (ΣFIC>0.5-≤1, additivity) | 0.75 | 1.0081 | –
